Where “and” joins values, the source holds several entries; their conditions need not be identical. Equal values may be shown once. Toxic doses and inconclusive results are not listed.
Tested on: BDF1 mice, P388 leukemia ip, median survival T/C
Experiment: NCI In Vivo Anticancer Drug Screen. Data for tumor model P388 Leukemia (intraperitoneal) in B6D2F1 (BDF1) mice
Conditions: endpoint: median survival time, higher = longer survival
Method in brief: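 T/C = treated-group survival ÷ vehicle-control survival; tumour transplanted into mice before dosing.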

In the case of CC1=CCC2C(=O)C=CC(=O)C2C1 (stereo unspecified), the T/C (dose: 0.57 mg/kg/injection, schedule: Q01DX009 (ip), vehicle: Klucel (hydroxypropylcellulose) (HPC)) is reported as 120 % of control, the T/C (dose: 0.85 mg/kg/injection, schedule: Q01DX009 (ip), vehicle: Klucel (hydroxypropylcellulose) (HPC)) is reported as 115 % of control and the T/C (dose: 2.0 mg/kg/injection, schedule: Q01DX009 (ip), vehicle: Klucel (hydroxypropylcellulose) (HPC)) is reported as 118 % of control. The T/C (dose: 3.12 mg/kg/injection, schedule: Q04DX003 (ip), vehicle: Klucel (hydroxypropylcellulose) (HPC)) was 100 % of control, the T/C (dose: 4.12 mg/kg/injection, schedule: Q01DX009 (ip), vehicle: Klucel (hydroxypropylcellulose) (HPC)) was 109 % of control and 110 % of control and the T/C (dose: 5.0 mg/kg/injection, schedule: Q04DX003 (ip), vehicle: Klucel (hydroxypropylcellulose) (HPC)) was 104 % of control. For the same molecule, the T/C (dose: 6.25 mg/kg/injection, schedule: Q01DX009 (ip), vehicle: Klucel (hydroxypropylcellulose) (HPC)) was 95 % of control and 120 % of control, the T/C (dose: 6.25 mg/kg/injection, schedule: Q04DX003 (ip), vehicle: Klucel (hydroxypropylcellulose) (HPC)) was 109 % of control and the T/C (dose: 9.37 mg/kg/injection, schedule: Q01DX009 (ip), vehicle: Klucel (hydroxypropylcellulose) (HPC)) was 104 % of control and 115 % of control. The T/C (dose: 10.0 mg/kg/injection, schedule: Q04DX003 (ip), vehicle: Klucel (hydroxypropylcellulose) (HPC)) was 109 % of control, the T/C (dose: 12.5 mg/kg/injection, schedule: Q01DX009 (ip), vehicle: Klucel (hydroxypropylcellulose) (HPC)) was 90 % of control and the T/C (dose: 12.5 mg/kg/injection, schedule: Q04DX003 (ip), vehicle: Klucel (hydroxypropylcellulose) (HPC)) was 90 % of control. For the same molecule, the T/C (dose: 18.0 mg/kg/injection, schedule: Q01DX009 (ip), vehicle: Klucel (hydroxypropylcellulose) (HPC)) was 113 % of control.
In the case of C=CCN(CC=C)CC=C, the T/C (dose: 25.0 mg/kg/injection, schedule: Q04DX003 (ip), vehicle: saline) is reported as 111 % of control, the T/C (dose: 50.0 mg/kg/injection, schedule: Q04DX003 (ip), vehicle: saline) is reported as 108 % of control and the T/C (dose: 100.0 mg/kg/injection, schedule: Q04DX003 (ip), vehicle: saline) is reported as 111 % of control.
CCCCCCCCN1CCCNCC1 was tested, and the T/C (dose: 25.0 mg/kg/injection, schedule: Q01DX009 (ip), vehicle: saline) was 100 % of control.
For NNC(=O)Cc1ccccc1, the T/C (dose: 25.0 mg/kg/injection, schedule: Q04DX003 (ip), vehicle: saline sonified) was 110 % of control, the T/C (dose: 50.0 mg/kg/injection, schedule: Q04DX003 (ip), vehicle: saline sonified) was 105 % of control and the T/C (dose: 100.0 mg/kg/injection, schedule: Q04DX003 (ip), vehicle: saline sonified) was 110 % of control.
In the case of O=C(O)CCCCCCc1ccc2ccccc2n1, the T/C (dose: 50.0 mg/kg/injection, schedule: Q01DX009 (ip), vehicle: other) is reported as 105 % of control, the T/C (dose: 100.0 mg/kg/injection, schedule: Q01DX009 (ip), vehicle: other) is reported as 117 % of control and the T/C (dose: 200.0 mg/kg/injection, schedule: Q01DX009 (ip), vehicle: other) is reported as 114 % of control.
In the case of COc1c(Br)cc(N=Cc2ccc(N(CCCl)CCCl)cc2C)cc1Br, the T/C (dose: 88.0 mg/kg/injection, schedule: Q01DX010 (ip), vehicle: carboxymethylcellulose (CMC)) is reported as 115 % of control, the T/C (dose: 133.0 mg/kg/injection, schedule: Q01DX010 (ip), vehicle: carboxymethylcellulose (CMC)) is reported as 155 % of control and the T/C (dose: 200.0 mg/kg/injection, schedule: Q01DX010 (ip), vehicle: carboxymethylcellulose (CMC)) is reported as 165 % of control. The T/C (dose: 300.0 mg/kg/injection, schedule: Q01DX010 (ip), vehicle: carboxymethylcellulose (CMC)) was 215 % of control.
CC(=O)[O][Hg][c]1cc[c]([Hg][O]C(C)=O)s1 was tested, and the T/C (dose: 3.0 mg/kg/injection, schedule: Q01DX009 (ip), vehicle: Klucel (hydroxypropylcellulose) (HPC)) was 100 % of control, the T/C (dose: 3.0 mg/kg/injection, schedule: Q04DX003 (ip), vehicle: Klucel (hydroxypropylcellulose) (HPC)) was 91 % of control and the T/C (dose: 6.0 mg/kg/injection, schedule: Q01DX009 (ip), vehicle: Klucel (hydroxypropylcellulose) (HPC)) was 100 % of control. For the same molecule, the T/C (dose: 6.0 mg/kg/injection, schedule: Q04DX003 (ip), vehicle: Klucel (hydroxypropylcellulose) (HPC)) was 100 % of control, the T/C (dose: 12.0 mg/kg/injection, schedule: Q01DX009 (ip), vehicle: Klucel (hydroxypropylcellulose) (HPC)) was 100 % of control and the T/C (dose: 12.0 mg/kg/injection, schedule: Q04DX003 (ip), vehicle: Klucel (hydroxypropylcellulose) (HPC)) was 100 % of control.
For COc1ccc2c3c(ccc2c1)C1=C(C(=O)O)CC(=O)C1(C)CC3 (stereo unspecified), the T/C (dose: 100.0 mg/kg/injection, schedule: Q04DX003 (sc), vehicle: steriod suspending solution) was 108 % of control, the T/C (dose: 200.0 mg/kg/injection, schedule: Q04DX003 (sc), vehicle: steriod suspending solution) was 100 % of control and the T/C (dose: 400.0 mg/kg/injection, schedule: Q04DX003 (sc), vehicle: steriod suspending solution) was 95 % of control.

From PubChem BioAssay AID328 (DTP/NCI, 2004)
